Measurements published in patent publication US20170157001A1, “Compositions Comprising Strontium and Uses Thereof in the Treatment or Prevention of Gingivitis, Periodontitis, Periodontitis as a Manifestation of Systemic Diseases, and Necrotizing Periodontal Diseases” (priority 2006, published 2017).

What was measured:
[1] = relative to cholecalciferol itself; cited from earlier work
[2] = Determination of solubility velocity by ICP-MS in 0.1 M hydrochloride solution; settings: in hydrochloride 0.1 M, 37° C., 84Sr signal
Description: Determination of solubility velocity by Inductively Coupled Plasma-Mass Spectrometry (ICP-MS)
The solubility is measures as strontium signals over time using ICP-MS. Using this technique it is possible to follow multiple isotopes of the element, here, ^84Sr, ^86Sr, ^87Sr and ^88Sr.
A hydrochloride solution (0.1 M) was added to the sample and the sample then immediately enters, by means of a peristaltic pump, the atomizer of the ICP-MS apparatus. The pump speed was 4.4 ml/min. […] The temperature of the HCl solution was 37° C.
The solubility velocity of the compound is obtained by analysing the slopes of the front curves. The first curve represents the experiment and the second curve the apparatus, thus the difference between the slopes of the two curves are used to calculate the solubility velocity by division with the top value.

| SMILES | times more effective in terms of bioavailability than cholecalciferol [1] | solubility velocity [2] |
| --- | --- | --- |
| C=C1/C(=C\C=C2/CCC[C@]3(C)[C@@H]([C@H](C)CCCC(C)(C)O)CC[C@@H]23)C[C@@H](O)C[C@@H]1O [1,25 dihydroxycholecalciferol] | ten | – |
| C=C1CC[C@H](O)C/C1=C/C=C1\CCC[C@]2(C)[C@@H]([C@H](C)CCCC(C)(C)O)CC[C@@H]12 [25-hydroxycholecalciferol] | five | – |
| [Cl-].[Cl-].[Sr+2] [strontium chloride] | – | very high |
